# What was measured:
# cocklebur = test: Test B pre/postemergence cocklebur; assay type: in vivo, Xanthium strumarium
# Procedure, shortened: (§1)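 Herbicidal effect was estimated by eye on a ten-point control scale after plants spent twelve to sixteen days in a greenhouse following soil or foliar treatment. Foliar sprays targeted plants at one to four leaves; all doses were formulated in a non-phytotoxic solvent with surfactant.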
# corn = test: Test B pre/postemergence corn; assay type: in vivo, Zea mays
# Procedure, shortened: as §1
# wheat = test: Test B pre/postemergence wheat; assay type: in vivo, Triticum aestivum
# Procedure, shortened: as §1
# smallflower flatsedge = test: Test B flood test smallflower flatsedge; assay type: in vivo, Cyperus difformis
# Procedure, shortened: (§2)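 Plants were grown to the 2-leaf stage before treatment with test chemical, then held in a greenhouse for twelve to sixteen days. Injury was visually rated against untreated controls on a 0–10 scale, where 0 is no effect and 10 is complete control.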
# purple nutsedge = test: Test B pre/postemergence purple nutsedge; assay type: in vivo, Cyperus rotundus
# Procedure, shortened: as §1
# velvetleaf = test: Test B pre/postemergence velvetleaf; assay type: in vivo, Abutilon theophrasti
# Procedure, shortened: as §1
# duck salad = test: Test B flood test duck salad; assay type: in vivo, Heteranthera limosa
# Procedure, shortened: as §2
# blackgrass = test: Test B pre/postemergence blackgrass; assay type: in vivo, Alopecurus myosuroides
# Procedure, shortened: as §1
# bamyardgrass = test: Test B flood test barnyardgrass; assay type: in vivo, Echinochloa crus-galli
# Procedure, shortened: as §2
# giant foxtail = test: Test B pre/postemergence giant foxtail; assay type: in vivo, Setaria faberii
# Procedure, shortened: as §1
# surinam grass = test: Test B pre/postemergence surinam grass; assay type: in vivo, Brachiaria decumbens
# Procedure, shortened: as §1
# sugar beet = test: Test B pre/postemergence sugar beet; assay type: in vivo, Beta vulgaris
# Procedure, shortened: as §1
# rape = test: Test B pre/postemergence rape; assay type: in vivo, Brassica napus
# Procedure, shortened: as §1
# soybean = test: Test B pre/postemergence soybean; assay type: in vivo, Glycine max
# Procedure, shortened: as §1
# bedstraw = test: Test B pre/postemergence bedstraw; assay type: in vivo, Galium aparine
# Procedure, shortened: as §1
# crabgrass = test: Test B pre/postemergence crabgrass; assay type: in vivo, Digitaria sanguinalis
# Procedure, shortened: as §1
# morningglory = test: Test B pre/postemergence morningglory; assay type: in vivo, Ipomoea hederacea
# Procedure, shortened: as §1
# rice = test: Test B flood test rice; assay type: in vivo, Oryza sativa
# Procedure, shortened: as §2
# pigweed = test: Test B pre/postemergence pigweed; assay type: in vivo, Amaranthus retroflexus
# Procedure, shortened: as §1
# wild oat = test: Test B pre/postemergence wild oat; assay type: in vivo, Avena fatua
# Procedure, shortened: as §1
# [1] = Postemergence, Rate 125 g/ha, scale 0 to 10, 0 is no effect, 10 is complete control
# [2] = Postemergence, Rate 250 g/ha, scale 0 to 10
# [3] = Postemergence, Rate 500 g/ha, scale 0 to 10, 0 is no effect, 10 is complete control
# [4] = Preemergence, Rate 62 g/ha, scale of 0 to 10 where 0 is no effect and 10 is complete control
# [5] = Preemergence, Rate 125 g/ha, scale 0 to 10, 0 is no effect, 10 is complete control
# [6] = Preemergence, Rate 250 g/ha, scale 0 to 10, 0 is no effect, 10 is complete control
# [7] = Preemergence, Rate 500 g/ha, scale of 0 to 10 where 0 is no effect and 10 is complete control
# [8] = Rate 62 g/ha, Postemergence, scale 0 to 10, 0 no effect, 10 complete control
# [9] = Rate 62 g/ha, flood test species, Pre-emergence, visual evaluation after twelve to sixteen days
# [10] = Rate 125 g/ha, under heading Pre-emergence, flood test species, visual evaluation after twelve to sixteen days
# [11] = Rate 250 g/ha, Pre-emergence (flood test species), scale 0 to 10, 0 is no effect, 10 is complete control
# [12] = Rate 500 g/ha, Pre-emergence section of Table B, 0 to 10 scale (0 no effect, 10 complete control)
smiles,measurement,setting,value
CC(C)N(C(=O)n1oc(=O)n(CC2=CCCCC2)c1=O)c1ccccc1 [Compound 496],Cocklebur plant response rating,cocklebur; [1],0
same,Cocklebur plant response rating,cocklebur; [2],0
same,"Plant response rating, Cocklebur",cocklebur; [3],1
same,"Plant response rating, Cocklebur",cocklebur; [4],0
same,Cocklebur plant response rating,cocklebur; [5],0
same,Cocklebur plant response rating,cocklebur; [6],0
same,Cocklebur plant response rating,cocklebur; [7],0
same,Cocklebur plant response rating,cocklebur; [8],0
same,Corn plant response rating,corn; [1],0
same,Corn plant response rating,corn; [2],0
same,"Plant response rating, Corn",corn; [3],0
same,"Plant response rating, Corn",corn; [4],0
same,Corn plant response rating,corn; [5],0
same,Corn plant response rating,corn; [7],0
same,Corn plant response rating,corn; [8],0
same,Wheat plant response rating,wheat; [1],0
same,"Plant response rating, Wheat",wheat; [3],3
same,"Plant response rating, Wheat",wheat; [4],0
same,Wheat plant response rating,wheat; [5],0
same,Wheat plant response rating,wheat; [7],0
same,Wheat plant response rating,wheat; [8],0
same,"Plant response rating, S. Flatsedge (0 to 10 scale, 0 is no effect, 10 is complete control)",smallflower flatsedge; [9],0
same,"S. Flatsedge plant response rating (0 to 10 scale, 0 is no effect, 10 is complete control)",smallflower flatsedge; [10],0
same,S. Flatsedge plant response rating,smallflower flatsedge; [11],0
same,S. Flatsedge plant response rating,smallflower flatsedge; [12],0
same,Nutsedge plant response rating,purple nutsedge; [1],0
same,"Plant response rating, Nutsedge",purple nutsedge; [3],0
same,"Plant response rating, Nutsedge",purple nutsedge; [4],0
same,Nutsedge plant response rating,purple nutsedge; [5],0
same,Nutsedge plant response rating,purple nutsedge; [7],0
same,Nutsedge plant response rating,purple nutsedge; [8],0
same,Velvetleaf plant response rating,velvetleaf; [1],0
same,"Plant response rating, Velvetleaf",velvetleaf; [3],0
same,"Plant response rating, Velvetleaf",velvetleaf; [4],0
same,Velvetleaf plant response rating,velvetleaf; [5],0
same,Velvetleaf plant response rating,velvetleaf; [7],0
same,Velvetleaf plant response rating,velvetleaf; [8],0
same,"Plant response rating, Ducksalad (0 to 10 scale, 0 is no effect, 10 is complete control)",duck salad; [9],0
same,"Ducksalad plant response rating (0 to 10 scale, 0 is no effect, 10 is complete control)",duck salad; [10],0
same,Ducksalad plant response rating,duck salad; [11],0
same,Ducksalad plant response rating,duck salad; [12],0
same,Blackgrass plant response rating,blackgrass; [1],3
same,Blackgrass plant response rating,blackgrass; [2],3
same,"Plant response rating, Blackgrass",blackgrass; [3],5
same,"Plant response rating, Blackgrass",blackgrass; [4],0
same,Blackgrass plant response rating,blackgrass; [5],0
same,Blackgrass plant response rating,blackgrass; [6],2
same,Blackgrass plant response rating,blackgrass; [7],2
same,Blackgrass plant response rating,blackgrass; [8],2
same,"Plant response rating, Barnyardgrass (0 to 10 scale, 0 is no effect, 10 is complete control)",bamyardgrass; [9],0
same,"Barnyardgrass plant response rating (0 to 10 scale, 0 is no effect, 10 is complete control)",bamyardgrass; [10],0
same,Barnyardgrass plant response rating,bamyardgrass; [11],0
same,Barnyardgrass plant response rating,bamyardgrass; [12],0
same,Giant foxtail plant response rating,giant foxtail; [1],0
same,"Plant response rating, Giant foxtail",giant foxtail; [3],0
same,"Plant response rating, Giant foxtail",giant foxtail; [4],2
same,Giant foxtail plant response rating,giant foxtail; [5],8
same,Giant foxtail plant response rating,giant foxtail; [7],9
same,Giant foxtail plant response rating,giant foxtail; [8],0
same,B. signalgrass plant response rating,surinam grass; [1],0
same,B. signalgrass plant response rating,"surinam grass; Postemergence, Rate 250 g/ha, scale 0 to 10, 0 no effect, 10 complete control",0
same,"Plant response rating, B. signalgrass",surinam grass; [3],4
same,"Plant response rating, B. signalgrass",surinam grass; [4],0
same,B. signalgrass plant response rating,surinam grass; [5],0
same,B. signalgrass plant response rating,surinam grass; [6],1
same,B. signalgrass plant response rating,"surinam grass; Preemergence, Rate 500 g/ha, scale 0 to 10, 0 is no effect, 10 is complete control",8
same,B. signalgrass plant response rating,surinam grass; [8],0
same,Sugarbeets plant response rating,sugar beet; [1],0
same,"Plant response rating, Sugarbeets",sugar beet; [3],0
same,"Plant response rating, Sugarbeets",sugar beet; [4],0
same,Sugarbeets plant response rating,sugar beet; [5],0
same,Sugarbeets plant response rating,sugar beet; [7],0
same,Sugarbeets plant response rating,sugar beet; [8],0
same,Rape plant response rating,rape; [1],0
same,"Plant response rating, Rape",rape; [3],0
same,"Plant response rating, Rape",rape; [4],0
same,Rape plant response rating,rape; [5],0
same,Rape plant response rating,rape; [7],0
same,Rape plant response rating,rape; [8],0
same,Soybean plant response rating,soybean; [1],3
same,"Plant response rating, Soybean",soybean; [3],3
same,"Plant response rating, Soybean",soybean; [4],0
same,Soybean plant response rating,soybean; [5],0
same,Soybean plant response rating,soybean; [7],0
same,Soybean plant response rating,soybean; [8],2
same,Bedstraw plant response rating,bedstraw; [2],0
same,"Plant response rating, Bedstraw",bedstraw; [4],0
same,Bedstraw plant response rating,bedstraw; [5],0
same,Crabgrass plant response rating,crabgrass; [1],0
same,Crabgrass plant response rating,crabgrass; [2],0
same,"Plant response rating, Crabgrass",crabgrass; [3],2
same,"Plant response rating, Crabgrass",crabgrass; [4],0
same,Crabgrass plant response rating,crabgrass; [5],4
same,Crabgrass plant response rating,crabgrass; [7],9
same,Crabgrass plant response rating,crabgrass; [8],0
same,Morningglory plant response rating,morningglory; [1],8
same,"Plant response rating, Morningglory",morningglory; [3],8
same,"Plant response rating, Morningglory",morningglory; [4],0
same,Morningglory plant response rating,morningglory; [5],0
same,Morningglory plant response rating,morningglory; [7],0
same,Morningglory plant response rating,morningglory; [8],8
same,"Plant response rating, Rice (0 to 10 scale, 0 is no effect, 10 is complete control)",rice; [9],0
same,"Rice plant response rating (0 to 10 scale, 0 is no effect, 10 is complete control)",rice; [10],0
same,Rice plant response rating,rice; [11],0
same,Rice plant response rating,rice; [12],0
same,Redroot pigweed plant response rating,pigweed; [1],0
same,"Plant response rating, Redroot pigweed",pigweed; [3],3
same,"Plant response rating, Redroot pigweed",pigweed; [4],0
same,Redroot pigweed plant response rating,pigweed; [5],0
same,Redroot pigweed plant response rating,pigweed; [7],8
same,Redroot pigweed plant response rating,pigweed; [8],0
same,Wild oats plant response rating,wild oat; [1],0
same,"Plant response rating, Wild oats",wild oat; [3],2
same,"Plant response rating, Wild oats",wild oat; [4],0
same,Wild oats plant response rating,wild oat; [5],0
same,Wild oats plant response rating,wild oat; [7],0
same,Wild oats plant response rating,wild oat; [8],0
